# Data taken from US9522881B2, “Hydroxyindole carboxylic acid based inhibitors for oncogenic Src homology-2 domain containing protein tyrosine phosphatase-2 (SHP2)” (Indiana University Research and Technology Corporation, priority 2013, dated 2016).
# “Also recorded” adds a separate entry of the source.
# Key:
# [1] = test system: Erk1/2 and Akt phosphorylation; experiment: Erk1/2 and Akt phosphorylation in SKBR3 cells recovered from Matrigel (immunoblot); assay type: cell-based; conditions: 1 μM to 10 μM, 4 days in Matrigel
# Experimental: Approximately 300,000 SKBR3 cells were seeded into 150 μl of growth factor reduced Matrigel (Corning, Corning, N.Y.) in 35 mm dishes. To 3 dishes for each condition, 2 mL of media containing either 10 μl vehicle (DMSO) or compound 11a-1 at the indicated concentration was then added. Every 24 hours, the cells were imaged with a NIKON SMZ1500 stereomicroscoppe. The cross-sectional area of individual colonies from each image were measured using Adobe Photoshop software. After 4 days, the cells were recovered from the Matrigel and lysed in PLC buffer containing protease inhibitor cocktail (Cat. No. P8340; Sigma-Aldrich, St. Louis, Mo.). Lysates were then resolved by SDS-PAGE and relative levels of the indicated proteins were detected by immunoblot analysis.
# [2] = test system: phosphorylation of SHP2, Akt and Erk1/2; experiment: Phosphorylation of SHP2, Akt and Erk1/2 in 32D cells bearing KITD814V (western blot); assay type: cell-based; conditions: incubated 2 hours
# Experimental: FIG. 8C depicts 32D myeloid cells bearing KITD814V that were starved of serum and growth factors for 6 hours and incubated with the indicated concentration of 11a-1 for 2 hours as analyzed in Example 6. After treatment, cells were lysed and equal amount of protein lysates were subjected to western blot analysis using indicated antibodies.
# [3] = molecular target: PTPε (Homo sapiens (Human), UniProt P23469); experiment: PTP selectivity panel, pNPP; assay type: biochemical, mammalian; conditions: pNPP at Km
# Sequence of PTPε (P23469 20-700): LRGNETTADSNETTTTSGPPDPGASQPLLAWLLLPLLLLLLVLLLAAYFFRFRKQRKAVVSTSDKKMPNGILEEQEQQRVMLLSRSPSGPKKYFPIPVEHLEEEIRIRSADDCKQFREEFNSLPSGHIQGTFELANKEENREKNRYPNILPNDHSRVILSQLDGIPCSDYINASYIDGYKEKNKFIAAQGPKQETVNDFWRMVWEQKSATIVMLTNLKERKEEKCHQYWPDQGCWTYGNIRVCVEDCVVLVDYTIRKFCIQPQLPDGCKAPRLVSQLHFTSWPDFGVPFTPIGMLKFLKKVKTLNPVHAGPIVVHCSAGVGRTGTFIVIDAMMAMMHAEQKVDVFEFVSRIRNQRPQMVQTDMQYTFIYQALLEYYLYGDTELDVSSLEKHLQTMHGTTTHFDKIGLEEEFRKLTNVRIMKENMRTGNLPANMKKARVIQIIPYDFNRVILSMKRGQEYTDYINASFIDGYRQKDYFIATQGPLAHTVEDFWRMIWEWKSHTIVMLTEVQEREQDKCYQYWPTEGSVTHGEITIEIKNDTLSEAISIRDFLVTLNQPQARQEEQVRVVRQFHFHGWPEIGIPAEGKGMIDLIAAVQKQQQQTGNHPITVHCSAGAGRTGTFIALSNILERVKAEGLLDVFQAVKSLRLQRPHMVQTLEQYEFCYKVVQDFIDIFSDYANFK
# [4] = test system: 32D myeloid cells bearing wild-type (WT) KIT; experiment: Proliferation (thymidine incorporation) of 32D myeloid cells bearing WT KIT; assay type: cell-based; conditions: tested concentrations, with IL-3
# Experimental: FIG. 8A is a graph depicting 32D myeloid cells bearing wild-type (WT) KIT or KITD814V that were starved of serum and growth factors for 6 hours and subjected to proliferation assay in the presence or absence of the indicated concentration of II-B08 or 11a-1 as analyzed in Example 6. Assay was performed in the presence of IL-3 (10 ng/mL) for cells bearing WT KIT and in the absence of growth factors for cells bearing oncogenic KITD814V. Bars denote the mean thymidine incorporation (CPM±SEM) consolidated from four independent experiments performed in triplicate. *p<0.05.
# To further determine the efficacy of compound 11a-1, the growth of oncogenic KITD814V bearing 32D myeloid cells in the presence of II-B08 and 11a-1 were compared. Specifically, the wild-type (WT) KIT and KITD814V were inserted into the bicistronic retroviral vector, MIEG3, upstream of the internal ribosome entry site (IRES) and the enhanced green fluorescent protein (EGFP) gene as previously described in Mali et al., 2012. Retroviral supernatants for transduction of 32D myeloid cells and primary hematopoietic stem and progenitor cells were generated using Phoenix ecotropic packaging cell line transfected with retroviral vector plasmids using a calcium phosphate transfection kit (Invitrogen, Carlsbad, Calif.). Supernatants were collected 48 hours after transfection and filtered through 0.45 μm membranes. […]
# [5] = molecular target: PEZ (Homo sapiens (Human), UniProt Q15678); experiment: PTP selectivity panel, pNPP; assay type: biochemical, mammalian; conditions: pNPP at Km
# Sequence of PEZ (Q15678 whole entry, species assumed): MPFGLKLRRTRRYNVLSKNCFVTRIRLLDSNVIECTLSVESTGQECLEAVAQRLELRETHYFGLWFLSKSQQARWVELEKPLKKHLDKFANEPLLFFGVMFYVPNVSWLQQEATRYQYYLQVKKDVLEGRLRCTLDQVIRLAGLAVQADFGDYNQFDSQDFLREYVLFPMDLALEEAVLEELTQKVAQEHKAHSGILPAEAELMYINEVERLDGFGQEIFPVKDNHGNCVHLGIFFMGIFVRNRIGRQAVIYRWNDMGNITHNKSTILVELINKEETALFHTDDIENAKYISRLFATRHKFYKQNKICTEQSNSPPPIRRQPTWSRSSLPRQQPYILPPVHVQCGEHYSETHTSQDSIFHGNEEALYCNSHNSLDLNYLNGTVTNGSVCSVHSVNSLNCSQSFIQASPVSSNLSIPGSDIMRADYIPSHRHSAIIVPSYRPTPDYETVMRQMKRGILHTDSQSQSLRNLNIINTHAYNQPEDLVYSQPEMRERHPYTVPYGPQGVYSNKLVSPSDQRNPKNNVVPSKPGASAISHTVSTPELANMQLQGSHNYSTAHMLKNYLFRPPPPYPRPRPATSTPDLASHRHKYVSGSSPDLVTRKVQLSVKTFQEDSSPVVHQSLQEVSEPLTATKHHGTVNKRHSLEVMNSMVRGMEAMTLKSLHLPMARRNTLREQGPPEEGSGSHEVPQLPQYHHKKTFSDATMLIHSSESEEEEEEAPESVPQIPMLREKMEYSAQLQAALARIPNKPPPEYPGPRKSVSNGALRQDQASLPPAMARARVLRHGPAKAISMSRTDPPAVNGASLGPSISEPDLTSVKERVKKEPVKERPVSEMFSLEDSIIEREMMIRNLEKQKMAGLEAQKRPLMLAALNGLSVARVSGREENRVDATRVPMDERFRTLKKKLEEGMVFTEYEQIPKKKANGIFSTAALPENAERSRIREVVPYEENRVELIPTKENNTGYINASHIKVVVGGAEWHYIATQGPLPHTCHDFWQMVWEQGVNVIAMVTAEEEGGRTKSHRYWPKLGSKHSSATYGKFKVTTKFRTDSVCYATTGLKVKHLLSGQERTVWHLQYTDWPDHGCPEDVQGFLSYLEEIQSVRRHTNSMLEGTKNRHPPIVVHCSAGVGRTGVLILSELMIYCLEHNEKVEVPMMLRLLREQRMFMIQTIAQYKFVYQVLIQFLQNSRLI
# [6] = molecular target: PTPα (Homo sapiens (Human), UniProt P18433); experiment: PTP selectivity panel, pNPP; assay type: biochemical, mammalian; conditions: pNPP at Km
# Sequence of PTPα (P18433 whole entry, looked up): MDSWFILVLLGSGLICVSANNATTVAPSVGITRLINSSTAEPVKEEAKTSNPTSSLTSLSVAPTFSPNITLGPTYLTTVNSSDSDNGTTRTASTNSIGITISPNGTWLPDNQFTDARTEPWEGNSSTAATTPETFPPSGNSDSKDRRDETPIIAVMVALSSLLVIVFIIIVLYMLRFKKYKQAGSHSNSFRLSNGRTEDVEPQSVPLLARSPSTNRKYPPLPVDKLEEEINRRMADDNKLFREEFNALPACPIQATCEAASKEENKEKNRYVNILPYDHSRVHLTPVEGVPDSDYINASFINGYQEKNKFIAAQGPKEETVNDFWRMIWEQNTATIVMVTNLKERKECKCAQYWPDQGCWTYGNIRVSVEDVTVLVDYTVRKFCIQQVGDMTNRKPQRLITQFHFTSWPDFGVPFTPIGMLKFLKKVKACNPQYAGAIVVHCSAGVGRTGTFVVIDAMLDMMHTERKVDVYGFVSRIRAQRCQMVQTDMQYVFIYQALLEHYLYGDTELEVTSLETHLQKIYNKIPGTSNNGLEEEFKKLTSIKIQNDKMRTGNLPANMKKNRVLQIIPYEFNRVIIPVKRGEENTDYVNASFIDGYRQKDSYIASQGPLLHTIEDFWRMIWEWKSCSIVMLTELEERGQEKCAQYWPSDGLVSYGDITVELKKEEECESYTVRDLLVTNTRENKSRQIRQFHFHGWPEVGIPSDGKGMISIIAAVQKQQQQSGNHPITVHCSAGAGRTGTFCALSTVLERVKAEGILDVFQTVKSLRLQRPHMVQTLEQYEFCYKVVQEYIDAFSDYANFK
# [7] = molecular target: PTPγ (Homo sapiens (Human), UniProt P23470); experiment: PTP selectivity panel, pNPP; assay type: biochemical, mammalian; conditions: pNPP at Km
# Sequence of PTPγ (P23470 20-1445): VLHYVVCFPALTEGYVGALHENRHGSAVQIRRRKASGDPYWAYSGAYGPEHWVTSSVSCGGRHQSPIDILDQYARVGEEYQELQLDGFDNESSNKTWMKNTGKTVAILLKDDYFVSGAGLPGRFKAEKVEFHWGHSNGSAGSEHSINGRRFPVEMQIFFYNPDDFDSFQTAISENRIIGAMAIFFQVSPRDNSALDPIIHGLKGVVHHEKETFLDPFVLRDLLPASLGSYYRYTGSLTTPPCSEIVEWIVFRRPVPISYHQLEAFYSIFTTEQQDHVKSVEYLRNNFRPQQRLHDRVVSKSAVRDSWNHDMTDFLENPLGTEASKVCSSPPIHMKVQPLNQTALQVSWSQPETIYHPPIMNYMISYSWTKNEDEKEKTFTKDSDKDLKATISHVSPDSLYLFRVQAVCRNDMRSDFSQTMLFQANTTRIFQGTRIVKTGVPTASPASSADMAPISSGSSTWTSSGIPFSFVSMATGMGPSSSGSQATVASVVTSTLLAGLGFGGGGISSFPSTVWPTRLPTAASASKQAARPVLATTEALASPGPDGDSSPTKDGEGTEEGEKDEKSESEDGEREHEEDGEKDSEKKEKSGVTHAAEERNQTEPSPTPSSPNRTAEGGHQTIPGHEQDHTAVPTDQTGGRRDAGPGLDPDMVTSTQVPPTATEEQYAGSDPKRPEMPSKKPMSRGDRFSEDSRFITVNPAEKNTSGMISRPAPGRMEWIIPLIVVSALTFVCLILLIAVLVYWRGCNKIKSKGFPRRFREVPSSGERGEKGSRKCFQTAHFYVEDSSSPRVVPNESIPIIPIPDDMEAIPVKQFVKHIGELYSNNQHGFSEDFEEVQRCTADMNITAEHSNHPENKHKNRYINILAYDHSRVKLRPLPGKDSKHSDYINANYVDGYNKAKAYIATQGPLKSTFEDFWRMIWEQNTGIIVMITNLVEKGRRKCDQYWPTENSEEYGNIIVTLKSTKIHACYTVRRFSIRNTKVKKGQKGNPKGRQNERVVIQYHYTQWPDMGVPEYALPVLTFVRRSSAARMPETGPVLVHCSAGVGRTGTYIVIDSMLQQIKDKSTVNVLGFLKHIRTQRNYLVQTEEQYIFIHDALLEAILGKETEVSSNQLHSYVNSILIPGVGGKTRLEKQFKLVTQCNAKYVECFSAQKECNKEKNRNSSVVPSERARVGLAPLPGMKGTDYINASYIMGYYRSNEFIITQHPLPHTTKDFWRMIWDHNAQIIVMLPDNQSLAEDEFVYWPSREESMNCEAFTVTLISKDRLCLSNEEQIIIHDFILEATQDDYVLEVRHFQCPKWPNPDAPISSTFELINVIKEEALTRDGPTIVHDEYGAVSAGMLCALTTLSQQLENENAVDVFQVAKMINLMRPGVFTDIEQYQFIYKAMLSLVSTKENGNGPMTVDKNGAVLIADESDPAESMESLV
# [8] = molecular target: PTPH1 (Homo sapiens (Human), UniProt P26045); experiment: PTP selectivity panel, pNPP; assay type: biochemical, mammalian; conditions: pNPP at Km
# [9] = molecular target: UBLCP1 (Homo sapiens (Human), UniProt Q8WVY7); experiment: PTP selectivity panel, pNPP; assay type: biochemical, mammalian; conditions: pNPP at Km
# Sequence of UBLCP1 (Q8WVY7 whole entry, species assumed): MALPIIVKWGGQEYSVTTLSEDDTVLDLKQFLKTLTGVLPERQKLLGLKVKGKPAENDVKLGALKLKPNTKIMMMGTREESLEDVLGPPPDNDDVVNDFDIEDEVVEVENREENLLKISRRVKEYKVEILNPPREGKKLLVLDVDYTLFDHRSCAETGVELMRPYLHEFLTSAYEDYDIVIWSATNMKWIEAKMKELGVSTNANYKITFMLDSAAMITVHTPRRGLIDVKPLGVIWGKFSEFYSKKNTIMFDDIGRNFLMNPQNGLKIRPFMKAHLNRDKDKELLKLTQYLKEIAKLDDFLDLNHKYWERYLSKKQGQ
# [10] = test system: PMA-induced Erk1/2 phosphorylation; experiment: PMA-induced Erk1/2 phosphorylation; assay type: cell-based
# Experimental: To provide further evidence that the observed cellular effect of compound 11a-1 is SHP2 dependent, the effect of compound 11a-1 on PMA (phorbol 12-myristate 13-acetate)-induced Erk1/2 activation, which is SHP2 independent and instead depends on the activation of protein kinase C and Raf in a Ras-independent manner, was evaluated. Thus, SHP2 inhibitors would not be expected to affect PMA-induced Erk1/2 phosphorylation. Indeed, compound 11a-1 had no effect on PMA-induced Erk1/2 phosphorylation (FIG. 6D).
# [11] = molecular target: MKP5 (Homo sapiens (Human), UniProt Q9Y6W6); experiment: PTP selectivity panel, pNPP; assay type: biochemical, mammalian; conditions: pNPP at Km
# Sequence of MKP5 (Q9Y6W6 whole entry, species assumed): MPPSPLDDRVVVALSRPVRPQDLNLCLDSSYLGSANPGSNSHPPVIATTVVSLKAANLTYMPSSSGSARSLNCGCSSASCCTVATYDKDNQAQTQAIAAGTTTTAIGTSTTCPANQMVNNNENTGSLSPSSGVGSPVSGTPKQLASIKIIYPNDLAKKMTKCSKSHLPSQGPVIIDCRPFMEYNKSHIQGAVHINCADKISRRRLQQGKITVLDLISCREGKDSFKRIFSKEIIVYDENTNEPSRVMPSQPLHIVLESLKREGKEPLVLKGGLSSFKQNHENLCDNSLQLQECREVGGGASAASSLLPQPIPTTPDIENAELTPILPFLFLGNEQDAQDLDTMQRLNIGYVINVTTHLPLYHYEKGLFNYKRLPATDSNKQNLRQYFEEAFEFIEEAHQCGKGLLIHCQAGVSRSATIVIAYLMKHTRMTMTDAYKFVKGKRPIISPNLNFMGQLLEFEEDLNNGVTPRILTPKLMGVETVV
# [12] = test system: EGF-induced Erk1/2 phosphorylation; experiment: EGF-induced Erk1/2 phosphorylation in H1975 cells (immunoblot); assay type: cell-based, human
# Experimental: For biochemical studies, H1975 cells were serum-starved overnight followed by treatment with vehicle or compound 11a-1 for 3 hours, and then either left unstimulated or stimulated with 5 ng/ml EGF (Sigma, St. Louis, Mo.) for 60 minutes. Lysates were then resolved by SDS-PAGE and the protein phosphorylation levels were detected by immunoblot analysis. Specifically, cells were lysed in lysis buffer (1.0% Nonidet P-40, 50 mM Tris-HCl (pH 7.4), 150 mM NaCl, 5 mM EDTA, 2 mM NaVO3, 10 mM NaF) plus a protease inhibitor mixture available from Roche (Basel, Switzerland) and centrifuged at 10,000 rpm for 5 minutes at 4° C. Supernatants were collected and protein concentration was determined using the BCA protein assay (ThermoFisher Scientific, Rockford, Ill.). Equal amount of protein extracts were mixed with gel loading buffer and separated on SDS-PAGE. After electrophoresis, the proteins were transferred onto nitrocellulose membranes and nonspecific binding was blocked with 5% nonfat dry milk in Tris-buffered saline containing 0.1% Tween-20 (TBS-T). Membranes were then probed with various antibodies overnight at 4° C. on a rocker. After incubation, membranes were washed with TBS-T and incubated with appropriate horseradish peroxidase (HRP)-conjugated secondary antibodies for 1 hour at room temperature. Finally, the proteins on the membranes were detected using SuperSignal West Dura Luminol/Enhancer solution (ThermoFisher Scientific, Rockford, Ill.) and membranes were analyzed using Bio-Rad ChemiDoc XRS Imaging System.
smiles,measurement,setting,value
"Cn1c(-c2cccc(NC(=O)C(=O)Nc3ccc(-c4ccsc4)cc3)c2)c(I)c2cc(C(=O)O)c(O)cc21 [11a-1, 6-hydroxy-3-iodo-1-methyl-2-(3-(2-oxo-2-((4-(thiophen-3-yl)phenyl)amino)acetamido)phenyl)-1H-indole-5-carboxylic acid]",Erk1/2 and Akt phosphorylation in SKBR3 cells,[1],concordantly inhibited
same,"phosphorylation of SHP2, Akt and Erk1/2 in KITD814V bearing 32D cells",[2],dose dependent inhibition
same,IC50,[3],> 20 µM
same,growth of WT KIT bearing 32D cells,[4],no significant suppression
same,IC50,[5],5.3 ± 0.2 µM
same,IC50,[6],> 100 µM
same,IC50,[7],2.4 ± 0.4 µM
same,IC50,[8],1.07 ± 0.07 µM
same,IC50,[9],9.7 ± 0.5 µM
same,effect on PMA-induced Erk1/2 phosphorylation,[10],no effect
same,IC50,[11],2.9 ± 0.1 µM
same,reduction of Erk1/2 phosphorylation,"[12]; H1975 cells, 2 μM",40%
same,effect on EGF-induced Erk1/2 phosphorylation,"[12]; H1975 cells, dose-dependent",effectively reduced; also recorded: decreased
same,ability to inhibit EGF-mediated Erk1/2 activation in SHP2 knocked down cells,[12]; SHP2 knocked down with siRNA,blunted
